Laboratory results from patent US20240058422A1, “GLUCAGON-LIKE PEPTIDE-1 RECEPTOR ANTAGONISTS” (INDIANA UNIVERSITY RESEARCH AND TECHNOLOGY CORPORATION, priority 2022, published 2024).
Converted amounts (≈) assume the structure as drawn. Read-outs that look alike come from different tables or passages of the source. Residues, ends and D or L forms follow the SMILES beside them. *: point of attachment. Palmitoyl = CCCCCCCCCCCCCCCC(=O)*

Assays:
Solubility in buffer = conditions: 80 mM ammonium bicarbonate buffer, pH 7.7, Solubility 80 mM AmeBicarb pH7.7, Table 3; 80 mM AmeBicarb pH7.7
GLP-1R = GLP-1R (Homo sapiens, UniProt P43220); assay: GLP-1 receptor-mediated cAMP induction, luciferase reporter gene antagonism assay; type: cell-based; design: host or cells: HEK 293; conditions: antagonism of 0.05 nM GLP-1, HEK 293 cells, read-out: Bioactivity IC50
Method in brief: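 HEK 293 cells cotransfected with human GLP-1 receptor and CRE-luciferase were serum-deprived 16 h, then given serial peptide dilutions followed by 0.05 nM GLP-1 and incubated 5 h at 37° C.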

[1] = pH 7.7, Solubility [mg/mL] 80 mM AmBicarb pH7.7

Chain of GLP-1R (P43220 24-463): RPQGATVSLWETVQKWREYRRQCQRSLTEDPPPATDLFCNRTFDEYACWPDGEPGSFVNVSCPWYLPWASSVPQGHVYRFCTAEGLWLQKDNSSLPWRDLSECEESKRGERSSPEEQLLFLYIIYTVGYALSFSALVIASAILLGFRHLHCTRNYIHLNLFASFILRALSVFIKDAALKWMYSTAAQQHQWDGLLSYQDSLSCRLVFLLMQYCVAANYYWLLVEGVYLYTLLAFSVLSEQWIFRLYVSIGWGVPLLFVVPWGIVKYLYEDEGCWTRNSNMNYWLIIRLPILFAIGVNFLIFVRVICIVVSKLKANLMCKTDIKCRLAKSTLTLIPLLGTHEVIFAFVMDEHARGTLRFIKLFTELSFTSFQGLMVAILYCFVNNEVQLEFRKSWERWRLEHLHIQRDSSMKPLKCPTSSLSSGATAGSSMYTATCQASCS

Compound | solubility (physchem; [1]) [µg/mL] | solubility (Solubility in buffer) [µg/mL] | solubility (physchem; pH 7.7, Solubility 80 mM AmeBicarb pH7.7) [µg/mL] | IC50 (GLP-1R; Table 3, amino acid substitution variants of Jant4-K40) [nM] | solubility (physchem; pH 7.7, Solubility [mg/mL] PBS pH7.7) [µg/mL] | IC50 (GLP-1R; Table 4, Aib variants of 9-40am Jant4 K40[C16]) [nM]
CCCCCCCCCCCCCCCC(=O)NCCCC[C@H](NC(=O)[C@H](CO)NC(=O)[C@@H]1CCCN1C(=O)[C@@H]1CCCN1C(=O)[C@@H]1CCCN1C(=O)[C@H](C)NC(=O)CNC(=O)[C@H](CO)NC(=O)[C@H](CO)NC(=O)[C@@H]1CCCN1C(=O)CNC(=O)CNC(=O)[C@H](CCCCN)NC(=O)[C@@H](NC(=O)[C@H](CC(C)C)NC(=O)[C@H](Cc1c[nH]c2ccccc12)NC(=O)[C@H](C)NC(=O)[C@@H](NC(=O)[C@H](Cc1ccccc1)NC(=O)[C@H](CCC(=O)O)NC(=O)[C@H](CCCNC(=N)N)NC(=O)[C@@H](NC(=O)[C@H](C)NC(=O)[C@H](CCC(N)=O)NC(=O)[C@H](CCC(=O)O)NC(=O)[C@H](CCC(=O)O)NC(=O)[C@H](CC(C)C)NC(=O)[C@H](Cc1ccc(O)cc1)NC(=O)[C@H](CO)NC(=O)[C@H](CO)NC(=O)[C@@H](NC(=O)[C@@H](N)CC(=O)O)C(C)C)C(C)C)[C@@H](C)CC)C(C)C)C(N)=O [compound 47] (H-DVSSYLEEQAVREFIAWLVKGGPSSGAPPPSK(Palmitoyl)-NH2; N-terminus assumed) | 6100 (≈ 1680 µM) | 6100 (≈ 1680 µM) | – | – | – | –
CCCCCCCCCCCCCCCC(=O)NCCCC[C@H](NC(=O)[C@H](CO)NC(=O)[C@@H]1CCCN1C(=O)[C@@H]1CCCN1C(=O)[C@@H]1CCCN1C(=O)[C@H](C)NC(=O)CNC(=O)[C@H](CO)NC(=O)[C@H](CO)NC(=O)[C@@H]1CCCN1C(=O)CNC(=O)CNC(=O)[C@H](CCCNC(=N)N)NC(=O)[C@@H](NC(=O)[C@H](CC(C)C)NC(=O)[C@H](Cc1c[nH]c2ccccc12)NC(=O)[C@H](C)NC(=O)[C@@H](NC(=O)[C@H](Cc1ccccc1)NC(=O)[C@H](CCC(=O)O)NC(=O)[C@H](CCCNC(=N)N)NC(=O)[C@@H](NC(=O)[C@H](C)NC(=O)[C@H](CCC(N)=O)NC(=O)[C@H](CCC(=O)O)NC(=O)[C@H](CCC(=O)O)NC(=O)[C@H](CC(C)C)NC(=O)[C@H](Cc1ccc(O)cc1)NC(=O)[C@H](CCCNC(=N)N)NC(=O)[C@H](CO)NC(=O)[C@@H](NC(=O)[C@@H](N)CC(=O)O)C(C)C)C(C)C)[C@@H](C)CC)C(C)C)C(N)=O [compound 73] (H-DVSRYLEEQAVREFIAWLVRGGPSSGAPPPSK(Palmitoyl)-NH2; N-terminus assumed) | – | – | < 100 | 27 | – | –
CCCCCCCCCCCCCCCC(=O)NCCCC[C@H](NC(=O)[C@H](CO)NC(=O)[C@@H]1CCCN1C(=O)[C@@H]1CCCN1C(=O)[C@@H]1CCCN1C(=O)[C@H](C)NC(=O)CNC(=O)[C@H](CO)NC(=O)[C@H](CO)NC(=O)[C@@H]1CCCN1C(=O)CNC(=O)CNC(=O)C(C)(C)NC(=O)[C@H](CCCCN)NC(=O)[C@H](CC(C)C)NC(=O)[C@H](Cc1c[nH]c2ccccc12)NC(=O)[C@H](C)NC(=O)[C@@H](NC(=O)[C@H](Cc1ccccc1)NC(=O)[C@H](CCC(=O)O)NC(=O)[C@H](CCCNC(=N)N)NC(=O)[C@@H](NC(=O)[C@H](C)NC(=O)[C@H](CCC(N)=O)NC(=O)[C@H](CCC(=O)O)NC(=O)[C@H](CCC(=O)O)NC(=O)[C@H](CC(C)C)NC(=O)[C@H](Cc1ccc(O)cc1)NC(=O)[C@H](CO)NC(=O)[C@H](CO)NC(=O)[C@@H](NC(=O)[C@@H](N)CC(=O)O)C(C)C)C(C)C)[C@@H](C)CC)C(N)=O [SEQ ID NO: 43] | 18900 (≈ 5210 µM) | – | – | – | 200 (≈ 55.2 µM) | 13
